Tests used:
Format in all cases: cell-based, human
[1] = system: ALDH1; assay: Aldefluor assay of ALDH1 enzyme activity / ALDH1-High cell fraction; settings: A2780-Low and CP70-Low cells; ATRA (10 μM) or paclitaxel (60 ng/ml) for 4 days
Description: (§1) An Aldefluor® kit (StemCell Technologies) was used to assess ALDH activity in the ovarian cancer cell lines, as previously described (Saw, Y. T. et al. (2012) BMC Cancer, 12, 329.). In brief, 1×10^6 cells were incubated in Aldefluor® assay buffer containing a 1.5 μM ALDH substrate for 30 min at 37° C. Each sample was treated with 50 μM of DEAB, and used as a negative control. Prior to analysis, cells were stained with […] of propidium iodide to evaluate their viability. The fluorescence intensity of the stained cells was analysed using a FACSAria cell sorter Flow Cytometer (BD Biosciences). The reaction with DEAB was used to define the baseline for the assay. The ALDH activity of a sample was determined to be ‘high’ or ‘low’ based on the fluorescence intensity beyond or below the threshold defined by the reaction with DEAB. The cells having high or low ALDH activity are marked “-High” or “-Low” hereafter.

[2] = system: ALDH1, FoxM1 and Notch-1 expression in ES2 cells; assay: Western blotting of ALDH1, FoxM1 and Notch1; settings: ES2-Low cells; Thiostrepton or DAPT
[3] = system: ES2 cells (ES2-High, ES2-Low); assay: Sphere formation assay; settings: for sphere formation: ES2-High cells, different concentrations of Thiostrepton or DAPT; for decrease of sphere formation: ES2-Low cells, Thiostrepton or DAPT
Description: (§2) Right panel: relative fold changes of ALDH1 and FoxM1 expression compared with controls. […] Sphere formation in ES2-High cells after treatment with different concentrations of Thiostrepton or DAPT, and the relative fold changes in expression are shown (scale bar=200 μm).
(§3) Standard sphere formation assays were performed according to Zhang et al. (Zhang, S. et al. Cancer Res., 68, 4311-4320.) with minor modification. The cells (1×10^3) were resuspended in serum-free DMEM/F12 medium supplemented with 5 μg/ml insulin (Sigma), 20 ng/ml human recombinant epidermal growth factor (EGF; Invitrogen, Life Technologies, Carlsbad, Calif.) and 10 ng/ml basic fibroblast growth factor (bFGF; Invitrogen) in ultra-low attachment plates (Corning Costar, Corning, N.Y.). Spheres that arose within 1-2 weeks were counted. Colony diameters >50 μm were counted as a single-positive colony. The middle field was chosen for counting of spheres, and two fields for each plate were counted under a dissecting microscope. For all sphere formation experiments, a minimum of eight wells was run for each condition. All data represent the mean ±SEM of three separate experiments and at least 24 different fields.
as §1

[4] = system: A2780 and CP70 ovarian cancer cells; assay: MTT cytotoxicity assay (proliferation, doubling time); design: toxicity: dose or concentration left out as unconfirmed; settings: for cell proliferation: A2780 and CP70 derived cells, inhibitor treatment
Description: The cell lines were cultured in a humidified incubator containing 95% air and 5% CO2 at 37° C. in 96-well flat-bottomed microtiter plates. After 72 h of incubation, the in vitro cytotoxic effects of treatments were determined by MTT assay (at 570 nm).

[5] = system: ALDH1, FoxM1, Notch1, Oct-4 and Nanog expression in A2780 and CP70 cells; assay: Western blotting of ALDH1, FoxM1, Notch1 and CSC markers; settings: for ALDH1 expression / FoxM1 expression / Notch1 expression: A2780 and CP70 cells; for ALDH1 expression: 1 μM Thiostrepton or 10 μM DAPT; for FoxM1 expression / Notch1 expression: 1 μM Thiostrepton, 10 μM DAPT, or DEAB
[6] = system: A2780 and CP70 ovarian cancer cells; assay: Sphere formation assay; settings: for sphere formation efficiency: control and shALDH1 cells (A2780, CP70, CP70-vector, CP70-shALDH1), 1 μM Thiostrepton or 10 μM DAPT, 10 days
Description: FIGS. 1A-1F show ALDH1 regulates stemness and tumourigenic ability in ovarian cancer cells. […] A total of 1×10^3 A2780 (upper panel) and CP70 (lower panel) cells were seeded into a 96-well plate to evaluate the cells' sphere formation ability (scale bar=200 μm). DEAB was used to inhibit the reaction of ALDH1 and also served as a negative control. […] The β-actin was used as a protein loading control. The histogram represents the relative fold change of protein expression (right panel). […] A2780-ALDH1 (upper panel) and CP70-shALDH1 (lower panel) cells were seeded into 96-well plates to evaluate their sphere formation ability (scale bar=200 μm).
FIGS. 2A-2D show ALDH1 regulates stemness and tumourigenic ability through the FoxM1 and Notch1 signalling pathways. […] Representative images show spheres generated from single-cell cultures after 10 days. The lower panel depicts the relative sphere formation ratio (scale bar=200 μm). […] V: vector.
as §3, §1

[7] = system: ALDH1, FoxM1 and Notch-1 expression in ES2 cells; assay: Western blotting of ALDH1, FoxM1 and Notch1; settings: ES2-High cells; for ALDH1 expression: Thiostrepton or DAPT; for FoxM1 expression / Notch1 expression: different concentrations of Thiostrepton or DAPT
Description: as §2
The cells were lysed and then harvested using a cell lifter (Corning Costar). Protein concentrations were determined by Bio-Rad protein assay (Bio-Rad, Hercules, Calif.). Proteins were then separated by 10% sodium dodecyl sulphate-polyacrylamide gel electrophoresis and transferred to polyvinylidene difluoride membranes. Western blotting was performed using the following antibodies at the indicated dilutions: anti-ALDH1 (1:1000; BD Biosciences), anti-Oct4 (1:1000; BD Biosciences), anti-Nanog (1:1000; BD Biosciences), anti-Notch1 (1:1000; Abcam, Cambridge, UK), anti-FoxM1 (1:1000; Santa Cruz Biotechnology, Santa Cruz, Calif.) and anti-beta actin (1:5000; Sigma).

| SMILES | proportion of ALDH1-High cells [1] | downregulation of FoxM1 and Notch1 expression [2] | sphere formation [3] | decrease of sphere formation [3] | cell proliferation [4] | FoxM1 expression in FoxM1-overexpressing cells ([5]; A2780-FoxM1 cells, immunoblot, DAPT) | ALDH1 expression ([5]; western blotting) | FoxM1 expression ([5]; western blotting) | Notch1 expression ([5]; western blotting) | sphere formation efficiency [6] | ALDH1 expression [7] | FoxM1 expression [7] | Notch1 expression [7] | expression of CSC marker proteins FoxM1, Notch1, Oct 4 and Nanog ([5]; ALDH1-High cells, DEAB treatment, western blotting) | sphere formation ([6]; ALDH1-High A2780 or CP70 cells, DEAB treatment) | toxicity ([4]; A2780 and CP70-shALDH1 cells, effect not significant) |
| --- | --- | --- | --- | --- | --- | --- | --- | --- | --- | --- | --- | --- | --- | --- | --- | --- |
| CC(=O)O[C@H]1C(=O)[C@@]2(C)[C@H]([C@H](OC(=O)c3ccccc3)[C@]3(O)C[C@H](OC(=O)[C@H](O)[C@@H](NC(=O)c4ccccc4)c4ccccc4)C(C)=C1C3(C)C)[C@]1(OC(C)=O)CO[C@@H]1C[C@@H]2O [paclitaxel] | increased proportion of ALDH1-High cells |  |  |  |  |  |  |  |  |  |  |  |  |  |  |  |
| C[C@H](NC(=O)Cc1cc(F)cc(F)c1)C(=O)N[C@H](C(=O)OC(C)(C)C)c1ccccc1 [DAPT, N-[2S-(3,5-difluorophenyl)acetyl]-L-alanyl-2-phenyl-1,1-dimethylethyl ester-glycine] |  | not observed | decreased sphere formation in ES2-High cells in a dose-dependent manner | not observed | did not affect proliferation | failed to attenuate FoxM1 expression | did not affect ALDH1 expression | decreased Notch1 expression as well as FoxM1 expression, but to a lesser extent | decreased Notch1 expression | decreased sphere formation efficiency | did not affect ALDH1 expression | downregulated the expression levels of both FoxM1 and Notch1 in ES2-High cells in a dose-dependent manner | downregulated the expression levels of both FoxM1 and Notch1 in ES2-High cells in a dose-dependent manner |  |  |  |
| CCN(CC)c1ccc(C=O)cc1 [DEAB, diethylaminobenzaldehyde] |  |  |  |  | did not affect cell proliferation |  |  | downregulated | downregulated |  |  |  |  | inhibited | suppressed sphere formation |  |
| C=C(NC(=O)C(=C)NC(=O)c1csc(C2=N[C@@H]3c4csc(n4)[C@H]4NC(=O)c5csc(n5)[C@H]([C@](C)(O)[C@@H](C)O)NC(=O)[C@H]5CSC(=N5)/C(=C/C)NC(=O)[C@H]([C@@H](C)O)NC(=O)c5csc(n5)[C@]3(CC2)NC(=O)[C@H](C)NC(=O)C(=C)NC(=O)[C@H](C)NC(=O)[C@H]([C@@H](C)CC)N[C@@H]2C=Cc3c([C@H](C)O)cc(nc3[C@H]2O)C(=O)O[C@@H]4C)n1)C(N)=O [Thiostrepton, thiostrepton] |  | not observed | decreased sphere formation in ES2-High cells in a dose-dependent manner | not observed |  |  | did not affect ALDH1 expression | reduced the expression not only of FoxM1 but also of Notch1 | reduced the expression not only of FoxM1 but also of Notch1 | decreased sphere formation efficiency | did not affect ALDH1 expression | downregulated the expression levels of both FoxM1 and Notch1 in ES2-High cells in a dose-dependent manner | downregulated the expression levels of both FoxM1 and Notch1 in ES2-High cells in a dose-dependent manner |  |  | slight toxicity |
